Columns and labels:
[1] = Inhibition of Candida albicans AHAS catalytic subunit using pyruvate as substrate measured after 30 mins by colorimetric method
Candida albicans [2] = assay: Antifungal activity against Candida albicans SC5314 cultured in RPMI 1640 media after 24 hrs by broth microdilution method; type: functional; conditions: SC5314, 24 h
Candida albicans [3] = assay: Antifungal activity against Candida albicans SC5314 cultured in YNB media after 24 hrs by broth microdilution method; type: functional; conditions: SC5314, 24 h

COc1cc(Br)nc(NC(=O)[N-]S(=O)(=O)Oc2ccccc2C(=O)OCCCl)n1.[Na+]
Ki [1]: 379 nM | pKi [1]: 6.41 | MIC (Candida albicans [2]): > 100 µg/mL | MIC (Candida albicans [3]): > 100 µg/mL

Cc1cc(C)nc(NC(=O)[N-]S(=O)(=O)Oc2ccccc2OCCI)n1.[Na+]
Ki [1]: 3570 nM | pKi [1]: 5.45 | MIC (Candida albicans [2]): > 100 µg/mL | MIC (Candida albicans [3]): > 100 µg/mL

CCOC(=O)c1ccccc1OS(=O)(=O)[N-]C(=O)Nc1nc(I)cc(OC)n1.[Na+]
Ki [1]: 11.5 nM | pKi [1]: 7.91 | MIC (Candida albicans [2]): 100 µg/mL | MIC (Candida albicans [3]): 10 µg/mL

CCOC(=O)c1ccccc1OS(=O)(=O)[N-]C(=O)Nc1nc(C)cc(Cl)n1.[Na+]
Ki [1]: 37.1 nM | pKi [1]: 7.43 | MIC (Candida albicans [2]): > 100 µg/mL | MIC (Candida albicans [3]): > 100 µg/mL

COc1cc(C)nc(NC(=O)[N-]S(=O)(=O)Oc2ccccc2C(=O)OCCI)n1.[Na+]
Ki [1]: 610 nM | pKi [1]: 6.21 | MIC (Candida albicans [2]): > 100 µg/mL | MIC (Candida albicans [3]): > 100 µg/mL

COc1cc(Cl)nc(NC(=O)[N-]S(=O)(=O)Oc2ccccc2C(=O)Oc2ccccc2)n1.[Na+]
Ki [1]: 25400 nM | pKi [1]: 4.58 | MIC (Candida albicans [2]): > 100 µg/mL | MIC (Candida albicans [3]): > 100 µg/mL

COc1cc(OC)nc(NC(=O)[N-]S(=O)(=O)Oc2ccccc2C(=O)OC(C)C)n1.[Na+]
Ki [1]: 405 nM | pKi [1]: 6.4 | MIC (Candida albicans [2]): > 100 µg/mL | MIC (Candida albicans [3]): 20 µg/mL

COc1cc(Br)nc(NC(=O)[N-]S(=O)(=O)Oc2ccccc2C(=O)OCCI)n1.[Na+]
Ki [1]: 980 nM | pKi [1]: 6.01 | MIC (Candida albicans [2]): > 100 µg/mL | MIC (Candida albicans [3]): > 100 µg/mL

Cc1cc(Cl)nc(NC(=O)[N-]S(=O)(=O)Oc2ccccc2C(=O)OCCCl)n1.[Na+]
Ki [1]: 761 nM | pKi [1]: 6.09 | MIC (Candida albicans [2]): > 100 µg/mL | MIC (Candida albicans [3]): > 100 µg/mL

COc1cc(Cl)nc(NC(=O)[N-]S(=O)(=O)Oc2ccc([N+](=O)[O-])cc2)n1.[Na+]
Ki [1]: 28000 nM | pKi [1]: 4.55 | MIC (Candida albicans [2]): > 100 µg/mL | MIC (Candida albicans [3]): > 100 µg/mL

COc1cc(Cl)nc(NC(=O)[N-]S(=O)(=O)Oc2ccccc2C(=O)OC(C)C)n1.[Na+]
Ki [1]: 4560 nM | pKi [1]: 5.46 | MIC (Candida albicans [2]): > 100 µg/mL | MIC (Candida albicans [3]): > 100 µg/mL

Cc1cc(Cl)nc(NC(=O)[N-]S(=O)(=O)Oc2ccccc2OCCI)n1.[Na+]
Ki [1]: 885 nM | pKi [1]: 6.05 | MIC (Candida albicans [2]): > 100 µg/mL | MIC (Candida albicans [3]): > 100 µg/mL

COC(=O)c1ccccc1OS(=O)(=O)[N-]C(=O)Nc1nc(I)cc(OC)n1.[Na+]
Ki [1]: 66 nM | pKi [1]: 7.18 | MIC (Candida albicans [2]): > 100 µg/mL | MIC (Candida albicans [3]): > 100 µg/mL

COc1cc(C)nc(NC(=O)[N-]S(=O)(=O)Oc2ccccc2C(=O)OC(C)C)n1.[Na+]
Ki [1]: 268 nM | MIC (Candida albicans [2]): > 100 µg/mL | MIC (Candida albicans [3]): 80 µg/mL

Cc1cc(Cl)nc(NC(=O)[N-]S(=O)(=O)Oc2ccccc2[N+](=O)[O-])n1.[Na+]
Ki [1]: 103 nM | pKi [1]: 6.99 | MIC (Candida albicans [2]): > 100 µg/mL | MIC (Candida albicans [3]): 40 µg/mL

COc1cc(I)nc(NC(=O)[N-]S(=O)(=O)Oc2ccccc2OCCCl)n1.[Na+]
Ki [1]: 68 nM | pKi [1]: 7.16 | MIC (Candida albicans [2]): 100 µg/mL | MIC (Candida albicans [3]): 10 µg/mL

CCOC(=O)c1ccc(OS(=O)(=O)[N-]C(=O)Nc2nc(OC)cc(OC)n2)cc1.[Na+]
Ki [1]: > 50000 nM | MIC (Candida albicans [2]): > 100 µg/mL | MIC (Candida albicans [3]): > 100 µg/mL

COc1cc(Br)nc(NC(=O)[N-]S(=O)(=O)Oc2ccccc2OCCCl)n1.[Na+]
Ki [1]: 69 nM | pKi [1]: 7.13 | MIC (Candida albicans [2]): > 100 µg/mL | MIC (Candida albicans [3]): > 100 µg/mL

COc1cc(C)nc(NC(=O)[N-]S(=O)(=O)Oc2ccc([N+](=O)[O-])cc2)n1.[Na+]
Ki [1]: > 50000 nM | MIC (Candida albicans [2]): > 100 µg/mL | MIC (Candida albicans [3]): > 100 µg/mL

CCOC(=O)c1ccc(OS(=O)(=O)[N-]C(=O)Nc2nc(C)cc(Cl)n2)cc1.[Na+]
Ki [1]: > 50000 nM | MIC (Candida albicans [2]): > 100 µg/mL | MIC (Candida albicans [3]): > 100 µg/mL

COC(=O)c1ccccc1S(=O)(=O)NC(=O)Nc1nccc(C)n1 [MONOSULFURON ESTER]
Ki [1]: 16800 nM

Cc1cc(C)nc(NC(=O)[N-]S(=O)(=O)Oc2ccccc2C(=O)Oc2ccccc2)n1.[Na+]
Ki [1]: 25700 nM | pKi [1]: 4.6 | MIC (Candida albicans [2]): > 100 µg/mL | MIC (Candida albicans [3]): > 100 µg/mL

COc1cc(I)nc(NC(=O)[N-]S(=O)(=O)Oc2ccccc2OCCI)n1.[Na+]
Ki [1]: 637 nM | pKi [1]: 6.18 | MIC (Candida albicans [2]): > 100 µg/mL | MIC (Candida albicans [3]): 20 µg/mL

COc1cc(Br)nc(NC(=O)[N-]S(=O)(=O)Oc2ccccc2C(=O)OC(C)C)n1.[Na+]
Ki [1]: 1510 nM | pKi [1]: 5.82 | MIC (Candida albicans [2]): > 100 µg/mL | MIC (Candida albicans [3]): > 100 µg/mL

CCOC(=O)c1ccccc1OS(=O)(=O)[N-]C(=O)Nc1nc(C)cc(OC)n1.[Na+]
Ki [1]: 7.1 nM | pKi [1]: 8.16 | MIC (Candida albicans [2]): 25 µg/mL | MIC (Candida albicans [3]): 10 µg/mL

CCOC(=O)c1ccccc1OS(=O)(=O)[N-]C(=O)Nc1nc(C)cc(C)n1.[Na+]
Ki [1]: 750 nM | pKi [1]: 6.13 | MIC (Candida albicans [2]): > 100 µg/mL | MIC (Candida albicans [3]): > 100 µg/mL

CCCOC(=O)c1ccccc1OS(=O)(=O)[N-]C(=O)Nc1nc(OC)cc(OC)n1.[Na+]
Ki [1]: 260 nM | pKi [1]: 6.59 | MIC (Candida albicans [2]): > 100 µg/mL | MIC (Candida albicans [3]): > 100 µg/mL

COc1cc(Cl)nc(NC(=O)[N-]S(=O)(=O)Oc2ccccc2C(=O)OCC(F)(F)F)n1.[Na+]
Ki [1]: 265 nM | pKi [1]: 6.57 | MIC (Candida albicans [2]): > 100 µg/mL | MIC (Candida albicans [3]): > 100 µg/mL

CCOC(=O)c1cccc(OS(=O)(=O)[N-]C(=O)Nc2nc(C)cc(Cl)n2)c1.[Na+]
Ki [1]: > 50000 nM | MIC (Candida albicans [2]): > 100 µg/mL | MIC (Candida albicans [3]): > 100 µg/mL

COc1cc(C)nc(NC(=O)[N-]S(=O)(=O)Oc2ccccc2OCCI)n1.[Na+]
Ki [1]: 91 nM | pKi [1]: 7.04 | MIC (Candida albicans [2]): > 100 µg/mL | MIC (Candida albicans [3]): 10 µg/mL

Cc1cc(C)nc(NC(=O)[N-]S(=O)(=O)Oc2ccc([N+](=O)[O-])cc2)n1.[Na+]
Ki [1]: 5660 nM | pKi [1]: 5.24 | MIC (Candida albicans [2]): > 100 µg/mL | MIC (Candida albicans [3]): > 100 µg/mL

COC(=O)c1ccccc1OS(=O)(=O)[N-]C(=O)Nc1nc(C)cc(Cl)n1.[Na+]
Ki [1]: 85.5 nM | pKi [1]: 7.06 | MIC (Candida albicans [2]): > 100 µg/mL | MIC (Candida albicans [3]): > 100 µg/mL

COc1cc(Cl)nc(NC(=O)[N-]S(=O)(=O)Oc2ccccc2OCCI)n1.[Na+]
Ki [1]: 583 nM | pKi [1]: 6.23 | MIC (Candida albicans [2]): > 100 µg/mL | MIC (Candida albicans [3]): > 100 µg/mL

CCCOC(=O)c1ccccc1OS(=O)(=O)[N-]C(=O)Nc1nc(C)cc(Cl)n1.[Na+]
Ki [1]: 35500 nM | MIC (Candida albicans [2]): > 100 µg/mL | MIC (Candida albicans [3]): > 100 µg/mL

CCOC(=O)c1cccc(OS(=O)(=O)[N-]C(=O)Nc2nc(C)cc(OC)n2)c1.[Na+]
Ki [1]: 1640 nM | pKi [1]: 5.78 | MIC (Candida albicans [2]): > 100 µg/mL | MIC (Candida albicans [3]): > 100 µg/mL

CCOC(=O)c1ccccc1OS(=O)(=O)[N-]C(=O)Nc1nc(Br)cc(OC)n1.[Na+]
Ki [1]: 10.8 nM | pKi [1]: 7.96 | MIC (Candida albicans [2]): > 100 µg/mL | MIC (Candida albicans [3]): > 100 µg/mL

COc1cc(C)nc(NC(=O)[N-]S(=O)(=O)Oc2ccccc2OCCCl)n1.[Na+]
Ki [1]: 78 nM | pKi [1]: 7.1 | MIC (Candida albicans [2]): 25 µg/mL | MIC (Candida albicans [3]): 10 µg/mL

CCCOC(=O)c1ccccc1OS(=O)(=O)[N-]C(=O)Nc1nc(Cl)cc(OC)n1.[Na+]
Ki [1]: 235 nM | pKi [1]: 6.62 | MIC (Candida albicans [2]): > 100 µg/mL | MIC (Candida albicans [3]): > 100 µg/mL

COc1cc(I)nc(NC(=O)[N-]S(=O)(=O)Oc2ccccc2C(=O)OCCCl)n1.[Na+]
Ki [1]: 740 nM | pKi [1]: 6.13 | MIC (Candida albicans [2]): > 100 µg/mL | MIC (Candida albicans [3]): > 100 µg/mL

COc1cc(Cl)nc(NC(=O)[N-]S(=O)(=O)Oc2ccccc2[N+](=O)[O-])n1.[Na+]
Ki [1]: 265 nM | pKi [1]: 6.58 | MIC (Candida albicans [2]): > 100 µg/mL | MIC (Candida albicans [3]): > 100 µg/mL

CCOC(=O)c1ccccc1OS(=O)(=O)[N-]C(=O)Nc1nc(Cl)cc(OC)n1.[Na+]
Ki [1]: 7.5 nM | pKi [1]: 8.12 | MIC (Candida albicans [2]): > 100 µg/mL | MIC (Candida albicans [3]): 40 µg/mL

COc1cc(Cl)nc(NC(=O)[N-]S(=O)(=O)Oc2ccccc2OCCCl)n1.[Na+]
Ki [1]: 87 nM | pKi [1]: 7.06 | MIC (Candida albicans [2]): > 100 µg/mL | MIC (Candida albicans [3]): > 100 µg/mL

COc1cc(I)nc(NC(=O)[N-]S(=O)(=O)Oc2ccccc2[N+](=O)[O-])n1.[Na+]
Ki [1]: 523 nM | pKi [1]: 6.28 | MIC (Candida albicans [2]): > 100 µg/mL | MIC (Candida albicans [3]): 40 µg/mL

Source: ChEMBL document CHEMBL4382231, “Chemical preparation, biological evaluation and 3D-QSAR of ethoxysulfuron derivatives as novel antifungal agents targeting acetohydroxyacid synthase” (Eur J Med Chem, 2019)
